Data reported in the supplement of paper PMC10307832.

Experiments:
Test in all cases: relative viability (nuclei count vs DMSO), 5 days (fraction); higher = more cells survive
[1] = test system: ABC-1
Summary of the method: (§1)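 Relative viability was taken as the ratio of nuclei in treated wells to nuclei in vehicle wells. Lung cancer cell lines in 1536-well plates received compounds by pin tool one day after seeding, either one drug alone or a fixed anchor-drug dose plus five library-drug doses (not always all listed) in √10 steps. Nuclei were counted on 4× images after 5 days of treatment, and values are medians of duplicate plates.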

[2] = test system: COR-L23
Summary of the method: as §1

[3] = test system: ChaGo-K-1
Summary of the method: as §1

[4] = test system: EMC-BAC-2
Summary of the method: as §1

[5] = test system: HARA
Summary of the method: as §1

[6] = test system: HCC-15
Summary of the method: as §1

[7] = test system: HCC-366
Summary of the method: as §1

[8] = test system: HCC-78
Summary of the method: as §1

[9] = test system: HOP-62
Summary of the method: as §1

[10] = test system: LC-2-ad
Summary of the method: as §1

[11] = test system: NCI-H1395
Summary of the method: as §1

For `Nc1ccn([C@@H]2O[C@H](CO)[C@@H](O)[C@@H]2O)c(=O)n1` [Cytarabine] + CC(=O)c1c(C)c2cnc(Nc3ccc(N4CCNCC4)cn3)nc2n(C2CCCC2)c1=O [Palbociclib] (partner 0.5 µM), the relative viability ([1]; first compound 0.005 µM) was 0.49, the relative viability ([1]; first compound 0.01581 µM) was 0.736 and the relative viability ([1]; first compound 0.05 µM) was 0.625. The relative viability ([1]; first compound 0.1581 µM) was 0.468, the relative viability ([1]; first compound 0.5 µM) was 0.432 and the relative viability ([2]; first compound 0.005 µM) was 0.203. It also gave a relative viability ([2]; first compound 0.01581 µM) of 0.228, a relative viability ([2]; first compound 0.05 µM) of 0.176 and a relative viability ([2]; first compound 0.1581 µM) of 0.115. The relative viability ([2]; first compound 0.5 µM) was 0.122, the relative viability ([3]; first compound 0.005 µM) was 0.71 and the relative viability ([3]; first compound 0.01581 µM) was 0.598. For the same compound, the relative viability ([3]; first compound 0.05 µM) was 0.461, the relative viability ([3]; first compound 0.1581 µM) was 0.276 and the relative viability ([3]; first compound 0.5 µM) was 0.229. For the same compound, the relative viability ([4]; first compound 0.005 µM) was 0.51, the relative viability ([4]; first compound 0.01581 µM) was 0.501 and the relative viability ([4]; first compound 0.05 µM) was 0.463. For the same compound, the relative viability ([4]; first compound 0.1581 µM) was 0.353, the relative viability ([4]; first compound 0.5 µM) was 0.303 and the relative viability ([5]; first compound 0.005 µM) was 0.291. It also gave a relative viability ([5]; first compound 0.01581 µM) of 0.212, a relative viability ([5]; first compound 0.05 µM) of 0.221 and a relative viability ([5]; first compound 0.1581 µM) of 0.158. For the same compound, the relative viability ([5]; first compound 0.5 µM) was 0.163, the relative viability ([6]; first compound 0.005 µM) was 0.743 and the relative viability ([6]; first compound 0.01581 µM) was 0.673. For the same compound, the relative viability ([6]; first compound 0.05 µM) was 0.835, the relative viability ([6]; first compound 0.1581 µM) was 0.671 and the relative viability ([6]; first compound 0.5 µM) was 0.514. For the same compound, the relative viability ([7]; first compound 0.005 µM) was 0.302, the relative viability ([7]; first compound 0.01581 µM) was 0.287 and the relative viability ([7]; first compound 0.05 µM) was 0.245. For the same compound, the relative viability ([7]; first compound 0.1581 µM) was 0.0953, the relative viability ([7]; first compound 0.5 µM) was 0.0777 and the relative viability ([8]; first compound 0.005 µM) was 0.492. It also gave a relative viability ([8]; first compound 0.01581 µM) of 0.42, a relative viability ([8]; first compound 0.05 µM) of 0.393 and a relative viability ([8]; first compound 0.1581 µM) of 0.366. It also gave a relative viability ([8]; first compound 0.5 µM) of 0.361, a relative viability ([9]; first compound 0.005 µM) of 0.395 and a relative viability ([9]; first compound 0.01581 µM) of 0.297. The relative viability ([9]; first compound 0.05 µM) was 0.234, the relative viability ([9]; first compound 0.1581 µM) was 0.139 and the relative viability ([9]; first compound 0.5 µM) was 0.155. For the same compound, the relative viability ([10]; first compound 0.005 µM) was 0.412, the relative viability ([10]; first compound 0.01581 µM) was 0.417 and the relative viability ([10]; first compound 0.05 µM) was 0.505. The relative viability ([10]; first compound 0.1581 µM) was 0.379, the relative viability ([10]; first compound 0.5 µM) was 0.412 and the relative viability ([11]; first compound 0.005 µM) was 0.599. For the same compound, the relative viability ([11]; first compound 0.01581 µM) was 0.594, the relative viability ([11]; first compound 0.05 µM) was 0.492 and the relative viability ([11]; first compound 0.1581 µM) was 0.406. For the same compound, the relative viability ([11]; first compound 0.5 µM) was 0.345.
